This is an account of results in US20120308554A1, “VEGF-D/VEGFR2/3-MEDIATED REGULATION OF DENDRITES” (UNIVERSITAT HEIDELBERG, priority 2011, published 2012).

Read-outs that look alike come from different tables or passages of the source.

Holding throughout (assay type): cell-based, mice
The test system of one data set is hippocampal neurons. The data set is described as follows: Morphometric analyses (total dendritic length, Sholl analysis, spine density) of cultured hippocampal neurons. The conditions noted are these: for total dendritic length and dendritic complexity (Sholl analysis): neurons expressing the construct versus control constructs; for rescue of reduction in dendrite length and complexity caused by CaMBP4 or CaMKIVK75E: recombinant factors 100 ng/ml for 3 days, or VEGFD-HA expression. On the procedure: Hippocampal neurons from newborn C57BL/6 mice were cultured as known in the art. Experiments were done after a culturing period of 10 to 14 days in vitro (DIV). DNA transfection was done on DIV8 using Lipofectamine 2000 (Invitrogen, San Diego, Calif.). For the studies on dendrite morphology, neurons were analyzed 4-5 days after transfection.
For 3D Sholl Analysis, total dendritic length and spine morphology were calculated using Object-Image freeware software with a specific set of macros (written by Dr. E. Ruthazer, McGill University, Quebec). Briefly, a z-Stack acquisition was imported, calibrated in Object-Image and manually traced. Total dendritic length was then computed. For Sholl analysis, the shell interval was set at 5 μm. All analyses were performed blind. In all in vitro experiments, for each condition, a minimum of 12 neurons from three independent preparations was analyzed. For the Golgi staining quantifications of 20 neurons for each condition from 4 different injected animals per viral construct were traced and analyzed.
Hippocampal neurons were fixed with 4% paraformaldehyde at room temperature for 20 min. For immunostaining, primary and secondary antibodies were applied in GDB buffer (30 mM phosphate buffer [pH7.4] containing 0.2% gelatin, 0.5% Triton X-100, and 0.9 M NaCl). For the morphometric analyses, fluorescence images were acquired using a confocal laser-scanning microscope TCS SP2 (Leica, Mannheim, Germany) equipped with an inverted fluorescence microscope DM IRE2 (Leica) and Leica confocal scan software. All images were obtained with sequential acquisition setting at a resolution of 1024×1024 pixels. Each image was a z series projection of images taken at 1 μm intervals.

Data set [1] has as its system VEGFD, VEGF, VEGFC and VEGFR3. The data set is described as follows: qRT-PCR analysis of shRNA knock-down of VEGF family members. The conditions noted are these: hippocampal neurons infected with rAAV. On the procedure:
Total RNA was isolated at DIV10 to DIV13 from hippocampal primary neuron cultures or isolated brain tissues with Rneasy Mini Kit (Qiagen, Hilden, Germany) including an optional Dnase I treatment at room temperature for 15 min according to manufacturer's instructions (Qiagen). 1.2 μg of extracted RNA was reverse transcribed into first strand cDNA using High Capacity cDNA Reverse Transcription kit (Applied Biosystems, Foster City, Calif.). Quantitative reverse transcriptase PCR (qRT-PCR) was done on an ABI7300 thermal cycler using Universal qRT-PCR master mix with TaqMan Gene Expression Assays for the indicated genes (Applied Biosystems). The following TaqMan Gene Expression Assays were used in this study: Gusb (Mm00446953_m1), cFos (Mm00487425_m1), VEGFD (Mm00438965_m1), VEGFC (Mm01202432_m1), VEGF (Mm01281449_m1), VEGFR3 (Mm01292618_m1), beta-actin (Mm00607939_s1), beta-2 microglobulin (Mm00437762_m1), CBP (Mm01342435_m1), p38 MAPK alpha (Mm00442497_m1), p38 MAPK beta (Mm00440955_m1). Expression of target genes was normalized against the expression of Gusb as endogenous control gene. Data were derived from at least 5 independent experiments. For expression of shRNAs, an rAAV vector containing the U6 promoter for shRNA expression and a CaMKII promoter driving mCherry expression was used. Three different sequences were obtained from Open Biosystems ([…] 2 and […] 3), cloned and tested for silencing efficiency. […] As control, a scramble version of this sequence ([…] ID NO: 2) and the vector carrying only the mCherry ([…]) were used. Shp38alpha [NT] ID NO: 3), shp38beta [NT] ID NO: 4), […] ID NO: 5), […] ID NO: 6) and […] ID NO: 7; sequence obtained from Open Biosystems www.openbiosystems.com) were also cloned into the same vector. CBP expression level was knocked down using a pool of four short interfering RNAs (siRNAs) targeting mouse CBP (Accell siRNA SMARTpool; Thermo Scientific Dharmacon). The SMARTpool is a group of four siRNAs that have been screened to reduce a variety of potential off-target effects including the inclusion of miRNA (microRNA)-like seed motifs. Silencing of GAPDH was measured using Accell mouse GAPDH as a positive control, and as a negative control, a non-targeting Accell mouse siRNA pool was used. In addition, a fluorescently labeled non-targeting Accell mouse siRNA was also used to evaluate penetration efficiency in hippocampal neurons via immunocytochemistry. Briefly, 500 nM siRNAs were supplemented in the serum-free culturing medium at DIV8, and mRNA levels were analyzed at DIV13.
On the technique in general: Real-time PCR tracks product formation cycle by cycle.

The test system of data set [2] is cultured hippocampal neurons. Nature of the data set: Whole-cell patch clamp recordings of cultured hippocampal neurons. The text has this:
Whole-cell patch clamp recordings were made at room temperature from cultured hippocampal neurons plated on coverslips secured with a platinum ring in a recording chamber (Open access chamber-1, Science Products GmbH, Hofheim, Germany) mounted on a fixed-stage upright microscope (BX51WI, Olympus, Hamburg, Germany). Differential interference contrast optics, infrared illumination and a CCD camera (PCO, Visitron Systems, Puchheim, Germany) connected to a contrast enhancement unit (Argus, Hamamatsu, Herrsching am Ammersee, Germany) were used to view neurons on a video monitor. Recordings were made with a Multiclamp 700A amplifier, digitized through a Digidata 1322A A/D converter and acquired using pClamp software (Molecular Devices, CA, USA). All membrane potentials have been corrected for the calculated junction potential of −11 mV (JPCalc program by Dr. Peter H. Barry). mEPSCs and whole-cell AMPA (10 μM, 6 ml/min, Biotrend) responses were recorded as known in the art except for the solutions and that a holding potential of −71 mV was used and both TTX (1 μM, Biotrend, Cologne, Germany) and gabazine (5 μM, Biotrend) were included in the ACSF. TTX was applied before gabazine to prevent the induction of action potential bursting. Access (range: 7-18 MU) and membrane resistance (see Table 1) were monitored before and after mEPSC recordings and data was rejected if changes greater than 20% occurred.
Patch electrodes (3-4 MU) were made from borosilicate glass (1.5 mm, WPI, Sarasota, Fla., USA) and filled with intracellular solution (containing in mM: KCH3SO4, 145; NaCl, 8; HEPES, 10; K2-phosphocreatine, 10; Mgt-ATP, 4; Na3-GTP, 0.3; pH 7.35 with KOH). The extracellular solution was an artificial cerebrospinal fluid (ACSF, in mM: NaCl, 125; KCl, 3.5; MgCl2, 1.3; NaH2PO4, 1.2; CaCl2, 2.4; glucose, 25; NaHCO3, 26; gassed with 95% O2 and 5% CO2).
Background: In patch-clamp work, channel activity is measured electrically.

Another data set concerns VEGFD. Nature of the data set: qRT-PCR analysis of VEGFD expression in hippocampal neurons. On the procedure:
Total RNA was isolated at DIV10 to DIV13 from hippocampal primary neuron cultures or isolated brain tissues with Rneasy Mini Kit (Qiagen, Hilden, Germany) including an optional Dnase I treatment at room temperature for 15 min according to manufacturer's instructions (Qiagen). 1.2 μg of extracted RNA was reverse transcribed into first strand cDNA using High Capacity cDNA Reverse Transcription kit (Applied Biosystems, Foster City, Calif.).
Quantitative reverse transcriptase PCR (qRT-PCR) was done on an ABI7300 thermal cycler using Universal qRT-PCR master mix with TaqMan Gene Expression Assays for the indicated genes (Applied Biosystems). The following TaqMan Gene Expression Assays were used in this study: Gusb (Mm00446953_m1), cFos (Mm00487425_m1), VEGFD (Mm00438965_m1), VEGFC (Mm01202432_m1), VEGF (Mm01281449_m1), VEGFR3 (Mm01292618_m1), beta-actin (Mm00607939_s1), beta-2 microglobulin (Mm00437762_m1), CBP (Mm01342435_m1), p38 MAPK alpha (Mm00442497_m1), p38 MAPK beta (Mm00440955_m1). Expression of target genes was normalized against the expression of Gusb as endogenous control gene. Data were derived from at least 5 independent experiments.

For the molecule “shVEGFC: shRNA specific for VEGFC (GTTCATTCCATTATTAGAC; SEQ ID NO: 6) [reference compound]”, the “total dendritic length and dendritic complexity (Sholl analysis)” value in the data set with hippocampal neurons is “had no effect on dendrite length or complexity”. For the same molecule, in data set [1], the “mRNA levels of respective targets” value was “reduced mRNA levels of their respective targets”.

For the molecule “shp38α: shRNA specific for the alpha isoform of p38 MAPK (AAACACGAAAATGTGATTGGT; SEQ ID NO: 3) [reference compound]”, in the data set on hippocampal neurons (neurons expressing CaMBP4 (and CaMKIVK75E), rVEGFD 3 days), the “effect on rVEGFD-induced rescue of dendrite length and complexity” value is given as “prevented the rVEGFD-induced rescue”.

Consider “shVEGF: shRNA specific for VEGF (ACCTCACCAAAGCCAGCAC; SEQ ID NO: 5) [reference compound]”, for which, in the data set on hippocampal neurons, the “total dendritic length and dendritic complexity (Sholl analysis)” value is “had no effect on dendrite length or complexity”. In data set [1], the “mRNA levels of respective targets” value is given as “reduced mRNA levels of their respective targets”.

On to `C[S+]([O-])c1ccc(-c2nc(-c3ccncc3)c(-c3ccc(F)cc3)[nH]2)cc1` (stereo not drawn) [SB203580, reference compound], for which, in the data set with hippocampal neurons, the “Sholl analysis, SB203580 alone” value was “showed no difference compared to the respective untreated controls”; the “effect on rVEGFD-induced rescue of dendrite length and complexity” value was “severely compromised the ability of rVEGFD to rescue the impairment of dendrite length and complexity”.

Take “shVEGFR3: shRNA specific for VEGFR3 (CCCAGTATTGTGTGGTACAAA; SEQ ID NO: 7)”: in the data set with hippocampal neurons, the “total dendritic length and dendritic complexity (Sholl analysis)” value was “changes in the dendritic structure that were virtually identical to those obtained in hippocampal neurons transfected with pAAV-shVEGFD”. Moreover, in data set [1], the “mRNA levels of respective targets” value is reported as “reduced mRNA levels of their respective targets”.

Regarding “shSCR: scramble version of the shVEGFD sequence (GTGCCAAGACGGGTAGTCA; SEQ ID NO: 2), control [reference compound]”, in data set [2] (infected neurons), the “AP induc thresh (current injection required to induce an action potential)” value amounted to 116 ± 10 pA, the “AP thresh (membrane potential at which action potentials initiate)” value is reported as −48.4 ± 1.0 mV, the “Cm (membrane capacitance)” value came to 102.4 ± 4.4 pF and the “Rm (membrane resistance)” value came to 275 ± 15 MΩ. Further, in data set [2] (infected neurons), the “Vrest (resting membrane potential)” value is recorded as −78.7 ± 1.7 mV, the “mEPSC τ decay” value came to 5.70 ± 0.12 ms and the “mEPSC τ rise” value amounted to 3.36 ± 0.07 ms. Further, in data set [2] (transfected neurons), the “AP induc thresh (current injection required to induce an action potential)” value is 125 ± 13 pA, the “AP thresh (membrane potential at which action potentials initiate)” value is given as −44.1 ± 1.6 mV, the “Cm (membrane capacitance)” value is 88.6 ± 5.5 pF and the “Rm (membrane resistance)” value stood at 291 ± 32 MΩ. Also, in data set [2] (transfected neurons), the “Vrest (resting membrane potential)” value is −76.5 ± 2.3 mV, the “mEPSC τ decay” value is reported as 6.06 ± 0.07 ms and the “mEPSC τ rise” value is 3.18 ± 0.14 ms. Moreover, in the data set with hippocampal neurons (transfected hippocampal neurons), the “spine density (number of spines/20 μm)” value was found to be 6.17±0.56 spines/20 μm.

Consider `C[C@]12N[C@H](Cc3ccccc31)c1ccccc12` [MK801, reference compound], for which, in the data set on VEGFD, the “VEGFD expression (qRT-PCR)” value is listed as “significantly reduced the expression of VEGFD mRNA”.

B1: rVEGFC: recombinant mouse VEGFC (Biocat) (protein, UniProt P97953 108-223, looked up)
Vascular endothelial growth …: AHYNTEILKSIDNEWRKTQCMPREVCIDVGKEFGAATNTFFKPPCVSVYRCGGCCNSEGLQCMNTSTGYLSKTLFEITVPLSQGPKPVTISFANHTSCRCMSKLDVYRQVHSIIRR
Take B1: in the data set on hippocampal neurons, the “rescue of reduction in dendrite length and complexity caused by CaMBP4 or CaMKIVK75E” value is recorded as “neither recombinant VEGF (rVEGF) nor recombinant VEGFC (rVEGFC) was able to rescue”.

B2: VEGFD-HA: HA-tagged VEGFD expressed from rAAV plasmid or rAAV (protein, UniProt P97946 94-210, looked up)
Vascular endothelial growth …: FAATFYDTETLKVIDEEWQRTQCSPRETCVEVASELGKTTNTFFKPPCVNVFRCGGCCNEEGVMCMNTSTSYISKQLFEISVPLTSVPELVPVKIANHTGCKCLPTGPRHPYSIIRR
modifications: HA tag
Turning to B2, the neuronal morphology result with hippocampal neurons (neurons without nuclear calcium signaling blockade) was “no detectable effect on neuronal morphology”. Also, the “restoration of spine density in CaMBP4 or CaMKIVK75E expressing neurons” value in the data set on hippocampal neurons (rVEGFD 100 ng/ml 3 days or VEGFD-HA expression) was “failed to restore normal spine density”. Further, the “rescue of reduction in dendrite length and complexity caused by CaMBP4 or CaMKIVK75E” value with hippocampal neurons is “rescued the reduction in dendrite length and complexity”.

B3: resiVEGFD-HA: HA-tagged VEGFD resistant to shVEGFD, expressed from plasmid (protein, UniProt P97946 94-210, looked up)
Vascular endothelial growth …: B2 Vascular endothelial growth …
modifications: HA tag; shRNA-resistant coding sequence
notes: HA-tagged VEGFD resistant to shVEGFD, expressed from plasmid
Consider B3, for which the “effect on reduction of dendrite length and complexity caused by shVEGFD” value in the data set on hippocampal neurons (pAAV-shVEGFD transfected neurons, rVEGFD 100 ng/ml 3 days or co-transfection) is “rescued the reduction of dendrite length and complexity”.
